This test relates to M. tuberculosis H37Rv growth inhibition with meropenem. Description: dose response, H37Rv, with and without meropenem (AID 434987).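 Further: growth over 7 days at 37 °C before Alamar Blue read on day 9.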
The mark [1] stands for this setting: M. tuberculosis H37Rv growth inhibition, measured here: IC50 without meropenem.
[2] abbreviates: M. tuberculosis H37Rv growth inhibition, measured here: IC90 without meropenem.
[3] abbreviates: measured here: IC90 with meropenem.

Active and inactive are the calls of the source. How the calls were made is not given here. A value given as a limit tells only on which side of the number the result lay.

As for `NC(=O)CC(NC(=O)Cc1ccc(Br)cc1)c1ccc(NC2CCCCCC2)c([N+](=O)[O-])c1` (configuration not stated), the IC50 – broadly, the midpoint of a concentration-inhibition curve – is 72.9 µM (inactive). The compound also showed an IC50 under setting [1] greater than 100 µM. The IC90 (as a rule, the point of the concentration-response curve where the effect stands at 90%) under setting [2] was greater than 100 µM. Also, the IC90 under setting [3] is greater than 100 µM.

As to `S=C(NN=C1C2CC3CC(C2)CC1C3)Nc1ccccc1`, the IC50 was 45.7 µM (inactive). The compound also had an IC50 under setting [1] of 48.7 µM. For the same compound, the IC90 under setting [2] was 54.7 µM. Besides, the IC90 under setting [3] turned out to be 51.4 µM.

As for `Cc1sc2nc(C(C)(C)C)oc(=O)c2c1C`, the IC50 was > 100 µM (inactive). Further, the IC50 under setting [1] was greater than 100 µM. Under setting [2], this compound yielded an IC90 greater than 100 µM. This compound also showed an IC90 under setting [3] greater than 100 µM.

For the compound `CC(C)CC(=O)N1CCN(c2ccc([N+](=O)[O-])c(NCc3ccccc3)c2)CC1`, the IC50 was 44.9 µM (inactive). Further, the IC50 under setting [1] turned out to be 46.7 µM. Under setting [2], this compound had an IC90 of 51.5 µM. Under setting [3], this compound registered an IC90 of 48.6 µM.

Consider `CC1CCc2nc(NC(=O)C3COc4ccccc4O3)sc2C1` (configuration not stated), for which the IC50 is 26.2 µM (inactive). Under setting [1], the IC50 stood at 51.9 µM. This compound also showed an IC90 under setting [2] greater than 100 µM. Also, the IC90 under setting [3] is greater than 100 µM.

As to `Cc1ccccc1C(=O)NC(=S)Nc1sc2c(c1C#N)CCC(C)C2` (configuration not stated), the IC50 is > 100 µM (inactive). Further, the IC50 under setting [1] was greater than 100 µM. Under setting [2], this compound returned an IC90 greater than 100 µM. Under setting [3], the IC90 is greater than 100 µM.

On to `CC(C)(C)C1CCC(OCC(O)CN2CCN(c3ccccn3)CC2)CC1` (configuration not stated), for which the IC50 is 100 µM (inactive). The IC50 under setting [1] was greater than 100 µM. The compound further gave an IC90 under setting [2] greater than 100 µM. For the same compound, the IC90 under setting [3] was greater than 100 µM.

Regarding `NS(=O)(=O)c1ccc(Sc2nc3ccccc3s2)c([N+](=O)[O-])c1`, the IC50 is > 100 µM (inactive). The compound further gave an IC50 under setting [1] greater than 100 µM. Besides, the 90% effect concentration (IC90) under setting [2] is greater than 100 µM. For the same compound, the IC90 under setting [3] was greater than 100 µM.

Consider `O=C1N=C(N2CCCC2)S/C1=C\c1cccc(Br)c1`, for which the IC50 was 30.9 µM (inactive). The compound also gave an IC50 under setting [1] of 55 µM. Under setting [2], this compound returned an IC90 greater than 100 µM. The compound also had an IC90 under setting [3] greater than 100 µM.

Regarding `Cc1cc(Br)ccc1NC(=O)c1ccccc1-c1ccccc1`, the concentration for half-maximal inhibition (IC50) was 14.1 µM. This compound displayed an IC50 under setting [1] greater than 100 µM. Further, the IC90 under setting [2] was greater than 100 µM. Under setting [3], this compound came in with an IC90 greater than 100 µM.

On to `CC1CN(C(=S)NC(=O)c2cccc([N+](=O)[O-])c2)CC(C)O1` (configuration not stated), for which the IC50 is 11.8 µM. This compound also came in with an IC50 under setting [1] of 42.3 µM. Under setting [2], this compound yielded an IC90 greater than 100 µM. Also, the IC90 under setting [3] was greater than 100 µM.

For the compound `CSCC(=O)Nc1ccc(F)c(Cl)c1`, the IC50 was 10.1 µM (inactive). This compound registered an IC50 under setting [1] of 21.9 µM. The IC90 under setting [2] is greater than 100 µM. Under setting [3], this compound displayed an IC90 greater than 100 µM.

Take `O=C1COc2ccc(C(=O)CCl)cc2N1`: the IC50 was 25.7 µM (inactive). Under setting [1], this compound returned a concentration for half-maximal inhibition (IC50) of 24.7 µM. The compound further showed an IC90 under setting [2] of 27 µM. The IC90 under setting [3] was 44.4 µM.

Take `CCOc1nnnc2c1sc1nc(N3CCOCC3)c3c(c12)CCCC3`: the IC50 is > 100 µM (inactive). This compound returned an IC50 under setting [1] greater than 100 µM. For the same compound, the IC90 under setting [2] was greater than 100 µM. The compound further showed an IC90 under setting [3] greater than 100 µM.

With `CSc1ccccc1C(=O)Nc1ccc2c(c1)OCCO2`, the IC50 is 35.4 µM (inactive). Further, the IC50 under setting [1] is 80.5 µM. For the same compound, under setting [2], the IC90 was greater than 100 µM. The compound also showed an IC90 under setting [3] greater than 100 µM.

Regarding `CCOc1ccc(-c2nnc(-c3cccs3)o2)cc1OCC`, the IC50 was > 100 µM (inactive). Also, the IC50 under setting [1] is greater than 100 µM. This compound came in with an IC90 under setting [2] greater than 100 µM. This compound also displayed an IC90 under setting [3] greater than 100 µM.

In the case of `O=C(NC1CCCCC1)C1CCN(c2nccs2)CC1`, the IC50 was 40.2 µM. Under setting [1], this compound showed an IC50 greater than 100 µM. Also, the IC90 under setting [2] is greater than 100 µM. This compound showed an IC90 under setting [3] greater than 100 µM.

Take `COC(=O)c1cc(OC)c(OC)cc1NC(=S)N1CCN(C)CC1`: the IC50 is > 100 µM (inactive). Besides, the IC50 under setting [1] was greater than 100 µM. Under setting [2], this compound displayed an IC90 greater than 100 µM. The same compound displayed an IC90 under setting [3] greater than 100 µM.

Take `O=C1CS/C(=N/N=C2C3CC4CC(C3)CC2C4)N1`: the IC50 was 11.7 µM (inactive). Further, under setting [1], the IC50 is 23.5 µM. The IC90 under setting [2] was found to be 32.5 µM. Further, the IC90 under setting [3] amounted to 13.8 µM.

`Cn1cc(C(=O)N/N=C/C(Br)=C\c2ccccc2)ccc1=O`: the IC50 is > 100 µM (inactive). Moreover, the IC50 under setting [1] was greater than 100 µM. Further, under setting [2], the IC90 is greater than 100 µM. Further, under setting [3], the IC90 is greater than 100 µM.

Regarding `Cc1ccc(CSc2nccc(-c3c(C)nc4ccccn34)n2)cc1`, the IC50 was 7.91 µM. Also, the IC50 under setting [1] is 22.2 µM. Further, under setting [2], the IC90 is greater than 100 µM. The compound further yielded an IC90 under setting [3] greater than 100 µM.

Take `CC(C)C1CC(CCNCc2ccc(N(C)C)cc2)(c2ccccc2)CCO1` (configuration not stated): the IC50 was 24.5 µM (inactive). The compound also yielded an IC50 under setting [1] of 29 µM. Further, the IC90 under setting [2] was found to be 40.7 µM. Further, the IC90 under setting [3] was found to be 26.9 µM.

Consider `O=C1NC(=O)N(Cc2ccco2)C(=O)/C1=C\c1ccc(-c2ccc(F)cc2)o1`, for which the IC50 is 80.7 µM (inactive). In addition, the IC50 under setting [1] amounted to 84.5 µM. The compound also returned an IC90 under setting [2] greater than 100 µM. Also, under setting [3], the IC90 was greater than 100 µM.

Consider `Cc1nn(Cc2ccc(Cl)cc2)c(C)c1NC(=O)CSc1nc2c(c(C(F)(F)F)n1)CCc1ccccc1-2`, for which the IC50 was > 100 µM (inactive). Also, the IC50 under setting [1] was greater than 100 µM. This compound also returned a 90% effect concentration (IC90) under setting [2] greater than 100 µM. This compound came in with an IC90 under setting [3] greater than 100 µM.

On to `CC(NC(=O)CSc1nc2ccccc2c(=O)[nH]1)c1ccccc1` (configuration not stated), for which the IC50 is 18.9 µM (inactive). The compound also gave an IC50 under setting [1] of 23.8 µM. The same compound showed an IC90 under setting [2] greater than 100 µM. Besides, the IC90 under setting [3] is 60.9 µM.

`CCN(CC)C(=O)CSc1nnc2nnc3cc(OC)ccc3n12`: the IC50 was 12 µM (inactive). The IC50 under setting [1] was found to be 27.7 µM. The IC90 under setting [2] turned out to be 51.7 µM. The IC90 under setting [3] turned out to be 13.4 µM.

`Cn1c(=O)c2[nH]c(CNCc3ccccc3Cl)nc2n(C)c1=O`: the IC50 was 37.1 µM. Further, the IC50 under setting [1] is greater than 100 µM. This compound registered an IC90 under setting [2] greater than 100 µM. For the same compound, the IC90 under setting [3] is greater than 100 µM.

As to `COc1ccc2[nH]cc(C(=O)CCl)c2c1`, the IC50 is 2.68 µM. Moreover, the IC50 under setting [1] amounted to 9.54 µM. Further, the IC90 under setting [2] amounted to 31 µM. Besides, the IC90 under setting [3] was greater than 100 µM.

As to `Cn1c(/C=C/c2ccc(Br)cc2)c([N+](=O)[O-])c(=O)n(C)c1=O`, the IC50 is > 100 µM (inactive). The compound further came in with an IC50 under setting [1] greater than 100 µM. Under setting [2], this compound returned an IC90 greater than 100 µM. The IC90 under setting [3] was greater than 100 µM.

With `CCCOc1ccc(C(=O)CCN2CCCCC2)cc1`, the IC50 is 13.4 µM. Further, the concentration for half-maximal inhibition (IC50) under setting [1] is 54 µM. This compound yielded an IC90 under setting [2] of 77.1 µM. The same compound yielded an IC90 under setting [3] of 36.4 µM.

With `C/C(=N/NC(=O)c1cccs1)c1ccc(NC(=O)COc2ccc(Cl)cc2)cc1`, the IC50 is > 100 µM (inactive). Under setting [1], the IC50 was greater than 100 µM. Besides, under setting [2], the IC90 is greater than 100 µM. Also, under setting [3], the 90% effect concentration (IC90) was greater than 100 µM.

As for `CCOC(=O)c1sc(NC(=O)Cn2nnc3sc4c(c3c2=O)CCC(C(C)(C)C)C4)nc1C` (configuration not stated), the IC50 is 93.7 µM (inactive). Also, the concentration for half-maximal inhibition (IC50) under setting [1] is greater than 100 µM. In addition, the IC90 under setting [2] is greater than 100 µM. Also, the IC90 under setting [3] is greater than 100 µM.

`CC(=O)c1ccc(-n2c(C)ccc2-c2ccccc2)cc1`: the half-maximal inhibitory concentration (IC50) is 20.2 µM. The IC50 under setting [1] was 61.3 µM. The compound further displayed an IC90 under setting [2] of 88.3 µM. Moreover, under setting [3], the IC90 is greater than 100 µM.

The record behind these values is PubChem BioAssay AID434987 (Southern Research Specialized Biocontainment Screening …, 2010).
